Data on one compound can be found in publication PMC6934184, “Selective DNA-PKcs inhibition extends the therapeutic index of localized radiotherapy and chemotherapy” (The Journal of Clinical Investigation, 2019).

The assay has as its target T1, ALK L1196M (Homo sapiens, UniProt Q9UM73, L1196M).
T1 construct: purchased Thermo Fisher Scientific (Life Technologies) SelectScreen
Nature of the assay: SelectScreen LanthaScreen. The format is binding. To be noted: read-out: % displacement. The gist of the method: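 Percent values come from Thermo SelectScreen profiling of NU5455, combining activity and binding assays. CSF1R was run in Z'LYTE format at Km app ATP, and CAMK1 in Adapta format with ATP listed at 10.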

T1 sequence (Q9UM73 19-1620 L1196M): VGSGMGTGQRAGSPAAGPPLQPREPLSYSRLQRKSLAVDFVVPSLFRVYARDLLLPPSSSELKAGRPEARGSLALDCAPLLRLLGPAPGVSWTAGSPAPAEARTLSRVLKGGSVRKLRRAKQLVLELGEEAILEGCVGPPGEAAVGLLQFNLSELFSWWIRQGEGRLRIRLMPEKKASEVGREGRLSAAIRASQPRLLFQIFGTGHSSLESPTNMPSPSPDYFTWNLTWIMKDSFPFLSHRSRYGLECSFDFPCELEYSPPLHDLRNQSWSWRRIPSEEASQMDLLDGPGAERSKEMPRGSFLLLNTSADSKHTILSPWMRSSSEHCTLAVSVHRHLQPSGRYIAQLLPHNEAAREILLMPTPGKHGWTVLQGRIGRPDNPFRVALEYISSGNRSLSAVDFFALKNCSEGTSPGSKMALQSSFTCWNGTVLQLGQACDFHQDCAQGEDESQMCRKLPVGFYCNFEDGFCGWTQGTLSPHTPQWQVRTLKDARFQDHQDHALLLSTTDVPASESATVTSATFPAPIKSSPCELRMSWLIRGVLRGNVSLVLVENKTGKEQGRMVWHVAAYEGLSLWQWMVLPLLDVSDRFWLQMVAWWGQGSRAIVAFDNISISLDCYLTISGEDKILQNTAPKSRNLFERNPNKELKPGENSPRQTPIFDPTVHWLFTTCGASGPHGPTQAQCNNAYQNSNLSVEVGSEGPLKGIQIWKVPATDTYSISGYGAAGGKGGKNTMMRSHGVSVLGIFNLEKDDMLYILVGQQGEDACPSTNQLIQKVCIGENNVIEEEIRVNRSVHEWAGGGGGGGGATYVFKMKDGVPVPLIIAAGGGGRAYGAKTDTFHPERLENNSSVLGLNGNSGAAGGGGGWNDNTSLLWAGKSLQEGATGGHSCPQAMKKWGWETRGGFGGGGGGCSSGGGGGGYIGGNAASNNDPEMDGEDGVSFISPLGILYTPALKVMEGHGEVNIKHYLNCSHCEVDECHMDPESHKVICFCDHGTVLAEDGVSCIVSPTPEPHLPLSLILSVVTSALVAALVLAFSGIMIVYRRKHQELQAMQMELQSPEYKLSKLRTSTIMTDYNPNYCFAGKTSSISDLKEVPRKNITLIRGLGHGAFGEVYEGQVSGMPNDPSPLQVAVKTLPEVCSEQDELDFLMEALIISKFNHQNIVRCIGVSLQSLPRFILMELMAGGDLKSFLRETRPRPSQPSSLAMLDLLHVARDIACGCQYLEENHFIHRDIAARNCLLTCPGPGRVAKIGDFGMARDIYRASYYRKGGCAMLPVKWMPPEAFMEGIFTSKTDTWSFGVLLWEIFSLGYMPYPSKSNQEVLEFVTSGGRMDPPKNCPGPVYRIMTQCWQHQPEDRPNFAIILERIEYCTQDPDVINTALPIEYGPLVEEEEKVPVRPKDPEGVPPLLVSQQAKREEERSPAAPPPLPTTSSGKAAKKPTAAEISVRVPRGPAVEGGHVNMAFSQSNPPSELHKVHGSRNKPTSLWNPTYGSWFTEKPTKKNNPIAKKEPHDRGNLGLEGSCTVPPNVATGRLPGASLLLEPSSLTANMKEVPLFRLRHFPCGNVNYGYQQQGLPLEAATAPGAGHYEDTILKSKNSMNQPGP

As to `CN(C(=O)CN1CCOCC1)c1ccc2sc3c(-c4cccc5c(=O)cc(N6CC7CCC(C6)O7)oc45)cccc3c2c1` [NU5455], the inhibition at 1 µM was -1.7%.
